How the values were obtained:
HIV-1 LAI [1] = test: microbe, parasite or virus in culture; settings: Human immunodeficiency virus 1, MT2, 120 h
Experimental: (§1) Virus and cell lines. The T-cell lines, MT-2 and PM-1 were obtained through the AIDS Research and Reference Reagent Program, NIAID, and were contributed by Dr. D. Richman and Dr. R. Gallo, respectively. Both cell lines were cultured in RPMI 1640 medium supplemented with 10% fetal bovine serum, 2 mM L-glutamine and sub-cultured twice a week. The LAI strain of HIV-1 was obtained from the Fred Hutchinson Cancer Research Center, and the Bal strain was from NIH. Both virus stocks were amplified and titered in MT-2 cells (LAI) and PM-1 cells (Bal) using a virus infectivity assay.
(§2) Drug Susceptibility and Cytotoxicity Assays. For drug susceptibility assays, MT-2 cells were infected with HIV-1 LAI (or PM-1 cells with HIV-1 Bal) at an MOI of 0.005, and seeded into 96-well microtiter plates ([…] cells/ml) containing serial dilutions of test compounds. […] Each drug ratio consisted of an array of 3-fold serial dilutions, and was performed in quadruplicate. The plates were incubated at 37° C./5% CO2. The MT-2 cells infected with HIV-1 LAI were incubated for 5 days. On day-five post-infection, 20 μl from each well was harvested and quantitated by a reverse transcriptase (RT) assay, or in samples involving non-nucleoside RT inhibitors, an MTS assay. The PM-1 cells infected with HIV-1 Bal and used for studying the combinations with CCR5 inhibitors were incubated for six days. On day-six post-infection, 20 μl from each well was harvested, 20- and 50-fold diluted and quantitated by p24 assay. Cytotoxicity assays were performed using uninfected cells, exposed to the same drug combinations, and incubated for six days. Cell viability was determined by an MTS assay. The CC50 values were calculated by using the exponential form of the median effect equation as mentioned below for calculation of EC50.
(§3) In this equation, Fa stands for “fraction affected,” and represents the fraction of the viral load that has been inactivated. […] ED50 is drug concentration that is expected to reduce the amount of virus by 50%, and m is a parameter that reflects the slope of the concentration-response curve.
In carrying out the combination experiments below, the EC50 for Compound 1 and each comparator compound was determined during the course of each study, and used in the subsequent data analysis.

HIV-1 LAI [2] = test: Two-drug combination antiviral assay with Compound 1 (combination indices, Chou and Rideout); format: cell-based; settings: combination with Compound 1; for Combination Indices at 50% HIV Inhibition (Confidence Interval) / Combination Indices at 75% HIV Inhibition (Confidence Interval) / Combination Indices at 90% HIV Inhibition (Confidence Interval): 95% CI in parenthesis; for Overall Result of two-drug combination: all ratios and inhibition levels
Experimental: as §1, §2
Analysis of Drug Combination Effects. For determination of CI values, drugs were diluted in a fixed ratio and multiple ratios were analyzed. The drug serial dilutions spanned a range of concentrations near the EC50 value of each compound, so that equivalent antiviral activities could be compared. Concentration-response curves were estimated for each individual drug and every combination using the median-effect equation. The equation was fit using a nonlinear regression routine (Proc Nlin) in PC SAS version 8.01 (SAS Institute Inc., SAS Version 8.01, Cary, NC: SAS Institute Inc., 1990).
as §3
To assess antiviral effects of different drug combination treatments, combination indices (CIs) were calculated according to Chou and Rideout. The combination index was computed as CI=[D]1/[Dm]1+[D]2/[Dm]2
In this equation [Dm]1 and [Dm]2 are the concentrations of drugs that would individually produce a specific level of effect, while [D]1 and [D]2 are the concentrations of drugs in combination that would produce the same level of effect.
Theoretically, additivity is implied if the CI is equal to one, synergy if the CI is less than one, and antagonism if the CI is greater than one. […] At best, we can construct a range that contains the likely values for the CI, given the noise in the data. In this report, these ranges are reported in parentheses next to each point estimate of the CI. […] If the range fell entirely above 1.0, we would infer antagonistic behavior. If the range were to include 1.0, we would infer additivity.

[3] = EC50 ratio 1:1 (Compound 1 to comparator)
[4] = EC50 ratio 1:2.5 (Compound 1 to comparator)
[5] = EC50 ratio 2.5:1 (Compound 1 to comparator)

| EC50 (HIV-1 LAI [1]) [nM] | SMILES | Combination Indices at 50% HIV Inhibition (Confidence Interval) (HIV-1 LAI [2]; [3]) | Combination Indices at 75% HIV Inhibition (Confidence Interval) (HIV-1 LAI [2]; [3]) | Combination Indices at 90% HIV Inhibition (Confidence Interval) (HIV-1 LAI [2]; [3]) | Combination Indices at 50% HIV Inhibition (Confidence Interval) (HIV-1 LAI [2]; [4]) | Combination Indices at 75% HIV Inhibition (Confidence Interval) (HIV-1 LAI [2]; [4]) | Combination Indices at 90% HIV Inhibition (Confidence Interval) (HIV-1 LAI [2]; [4]) | Combination Indices at 50% HIV Inhibition (Confidence Interval) (HIV-1 LAI [2]; [5]) | Combination Indices at 75% HIV Inhibition (Confidence Interval) (HIV-1 LAI [2]; [5]) | Combination Indices at 90% HIV Inhibition (Confidence Interval) (HIV-1 LAI [2]; [5]) | Overall Result of two-drug combination (HIV-1 LAI [2]) | Overall Result of two-drug combination (HIV-1 LAI [2]; listed as nevirapine) |
| --- | --- | --- | --- | --- | --- | --- | --- | --- | --- | --- | --- | --- |
| 5 | CC(C)c1nc(CN(C)C(=O)N[C@H](C(=O)N[C@@H](Cc2ccccc2)C[C@H](O)[C@H](Cc2ccccc2)NC(=O)OCc2cncs2)C(C)C)cs1 [Ritonavir] | 0.25 (0.19, 0.31) | 0.38 (0.26, 0.50) | 0.58 (0.28, 0.88) | 0.16 (0.12, 0.20) | 0.25 (0.18, 0.32) | 0.40 (0.19, 0.60) | 0.40 (0.23, 0.57) | 0.66 (0.29, 1.04) | 1.11 (0.05, 2.17) | Additive- |  |
|  | Cc1cn([C@H]2C[C@H](N=[N+]=[N-])[C@@H](CO)O2)c(=O)[nH]c1=O [Zidovudine] | 0.30 (0.17, 0.42) | 0.48 (0.20, 0.76) | 0.78 (0.05, 1.51) | 0.20 (0.16, 0.25) | 0.30 (0.21, 0.40) | 0.45 (0.22, 0.68) | 0.04 (0.03, 0.04) | 0.04 (0.03, 0.05) | 0.04 (0.03, 0.05) | Synergistic |  |
| 12 | Nc1ccn([C@H]2CC[C@@H](CO)O2)c(=O)n1 [Zalcitabine] | 0.19 (0.15, 0.23) | 0.35 (0.26, 0.45) | 0.75 (0.40, 1.09) | 0.38 (0.31, 0.45) | 0.37 (0.28, 0.47) | 0.42 (0.24, 0.61) | 0.22 (0.18, 0.25) | 0.28 (0.22, 0.34) | 0.38 (0.24, 0.52) | Synergistic |  |
| 0.1 to 0.3 | O=C(C(=O)N1CCN(C(=O)c2ccccc2)CC1)c1c[nH]c2c(-n3ccnn3)ncc(F)c12 [Compound 1, 1-Benzoyl-4-[2-[4-fluoro-7-(1H-1,2,3-triazol-1-yl)-1H-pyrrolo[2,3-c]pyridin-3-yl]-1,2-dioxoethyl]-piperazine] |  |  |  |  |  |  |  |  |  | synergistic or additive-synergistic |  |

| SMILES | EC50 (HIV-1 LAI [1]) [nM] | Combination Indices at 50% HIV Inhibition (Confidence Interval) (HIV-1 LAI [2]; [3]) | Combination Indices at 75% HIV Inhibition (Confidence Interval) (HIV-1 LAI [2]; [3]) | Combination Indices at 90% HIV Inhibition (Confidence Interval) (HIV-1 LAI [2]; [3]) | Combination Indices at 50% HIV Inhibition (Confidence Interval) (HIV-1 LAI [2]; [4]) | Combination Indices at 75% HIV Inhibition (Confidence Interval) (HIV-1 LAI [2]; [4]) | Combination Indices at 90% HIV Inhibition (Confidence Interval) (HIV-1 LAI [2]; [4]) | Combination Indices at 50% HIV Inhibition (Confidence Interval) (HIV-1 LAI [2]; [5]) | Combination Indices at 75% HIV Inhibition (Confidence Interval) (HIV-1 LAI [2]; [5]) | Combination Indices at 90% HIV Inhibition (Confidence Interval) (HIV-1 LAI [2]; [5]) | Overall Result of two-drug combination (HIV-1 LAI [2]) | Overall Result of two-drug combination (HIV-1 LAI [2]; listed as nevirapine) |
| --- | --- | --- | --- | --- | --- | --- | --- | --- | --- | --- | --- | --- |
| Cc1ccnc2c1NC(=O)c1cccnc1N2C1CC1 [Nevirapine] | 127 | 0.13 (0.11, 0.16) | 0.17 (0.13, 0.22) | 0.24 (0.14, 0.33) | 0.32 (0.23, 0.40) | 0.72 (0.45, 0.99) | 1.69 (0.63, 2.75) | 0.37 (0.29, 0.44) | 0.76 (0.54, 0.98) | 1.60 (0.86, 2.34) | Additive- | additive to synergistic |

— patent US20050215544A1, “Methods of treating HIV infection” (priority 2004, published 2005)
